Measured values reported in patent publication US9012443B2 (Amgen Inc., priority 2011, dated 2015).
Where a name gives a salt, the structure may show the parent alone.

target: Nav 1.7 (Homo sapiens (Human), UniProt Q15858); test: Nav 1.7 in vitro PX assay (PatchXpress whole cell voltage clamp); type: cell-based; conditions: 293 cells, human Nav1.7, partially inactivated state; read-out: Nav1.7 PX IC50 IP
Description: Nav 1.7 In Vitro PX Assay
293 cells stably transfected with human Nav1.7 were recorded in whole cell voltage clamp mode with the PatchXpress automated electrophysiology system (Molecular Devices, LLC, Sunnyvale, Calif.). Compound effects were measured on a partially inactivated state of the sodium channel. Cells were clamped to a holding potential yielding 20 to 50% inactivation. To elicit sodium current, channels were activated by pulsing to −10 mV for 20 msec. […] A single concentration of test compound was applied to cells for a duration of 3 minutes. Peak sodium current was measured at the end of the compound addition period to determine percent inhibition. Three to five cells were tested per concentration, and IC50 curves were fitted to percent inhibition as a function of concentration.

Sequence of Nav 1.7 (Q15858 whole entry): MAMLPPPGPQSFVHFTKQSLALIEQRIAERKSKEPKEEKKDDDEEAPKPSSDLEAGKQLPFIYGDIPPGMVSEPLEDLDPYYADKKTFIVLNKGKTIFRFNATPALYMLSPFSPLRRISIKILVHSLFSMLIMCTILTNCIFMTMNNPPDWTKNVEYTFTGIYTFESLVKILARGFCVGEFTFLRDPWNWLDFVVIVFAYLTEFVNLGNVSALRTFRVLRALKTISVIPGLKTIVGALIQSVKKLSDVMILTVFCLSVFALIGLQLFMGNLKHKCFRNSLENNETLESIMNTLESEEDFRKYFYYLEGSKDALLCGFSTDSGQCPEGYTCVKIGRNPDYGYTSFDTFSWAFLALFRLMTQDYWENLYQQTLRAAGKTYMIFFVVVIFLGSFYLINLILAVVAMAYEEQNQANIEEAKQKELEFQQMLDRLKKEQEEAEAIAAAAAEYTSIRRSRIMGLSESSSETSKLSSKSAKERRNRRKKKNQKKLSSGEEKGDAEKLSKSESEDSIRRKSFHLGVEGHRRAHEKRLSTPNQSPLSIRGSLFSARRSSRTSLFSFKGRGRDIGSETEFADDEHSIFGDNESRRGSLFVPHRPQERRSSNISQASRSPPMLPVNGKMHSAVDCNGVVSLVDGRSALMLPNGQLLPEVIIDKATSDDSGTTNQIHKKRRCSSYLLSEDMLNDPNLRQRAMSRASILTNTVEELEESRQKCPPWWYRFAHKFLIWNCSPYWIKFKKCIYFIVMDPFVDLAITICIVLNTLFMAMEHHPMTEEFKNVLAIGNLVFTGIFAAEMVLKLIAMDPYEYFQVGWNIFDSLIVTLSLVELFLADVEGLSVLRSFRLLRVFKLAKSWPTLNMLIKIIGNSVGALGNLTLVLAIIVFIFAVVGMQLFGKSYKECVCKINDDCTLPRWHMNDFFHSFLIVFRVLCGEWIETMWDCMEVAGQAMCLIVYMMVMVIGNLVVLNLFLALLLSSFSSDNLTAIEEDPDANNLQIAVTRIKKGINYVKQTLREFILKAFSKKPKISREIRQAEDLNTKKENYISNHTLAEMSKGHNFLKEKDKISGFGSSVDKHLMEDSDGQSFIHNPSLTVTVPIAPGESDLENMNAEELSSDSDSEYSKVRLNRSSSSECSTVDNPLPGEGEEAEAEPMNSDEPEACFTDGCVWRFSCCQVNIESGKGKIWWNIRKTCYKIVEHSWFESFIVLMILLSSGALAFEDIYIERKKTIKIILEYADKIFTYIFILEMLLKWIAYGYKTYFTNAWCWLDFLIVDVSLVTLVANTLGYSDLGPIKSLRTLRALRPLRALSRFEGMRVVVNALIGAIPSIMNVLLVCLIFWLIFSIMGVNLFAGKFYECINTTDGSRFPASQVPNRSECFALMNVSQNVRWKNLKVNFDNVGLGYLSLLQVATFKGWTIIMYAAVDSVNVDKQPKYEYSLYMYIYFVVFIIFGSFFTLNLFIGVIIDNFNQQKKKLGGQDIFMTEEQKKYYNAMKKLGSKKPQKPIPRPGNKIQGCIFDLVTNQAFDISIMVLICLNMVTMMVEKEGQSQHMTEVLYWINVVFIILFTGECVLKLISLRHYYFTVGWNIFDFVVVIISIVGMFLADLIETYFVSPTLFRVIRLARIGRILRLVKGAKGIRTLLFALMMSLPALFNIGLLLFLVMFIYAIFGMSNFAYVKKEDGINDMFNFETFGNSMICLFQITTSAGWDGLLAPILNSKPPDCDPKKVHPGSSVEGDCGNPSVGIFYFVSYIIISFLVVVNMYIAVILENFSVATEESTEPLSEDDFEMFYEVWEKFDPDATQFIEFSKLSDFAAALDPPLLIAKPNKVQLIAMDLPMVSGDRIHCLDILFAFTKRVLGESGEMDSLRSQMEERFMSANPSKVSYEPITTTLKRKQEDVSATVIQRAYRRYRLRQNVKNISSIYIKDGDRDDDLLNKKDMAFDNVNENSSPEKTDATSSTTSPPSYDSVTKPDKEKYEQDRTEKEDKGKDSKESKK

Row | IC50 [nM] | SMILES
1 | 5110 | COc1ccccc1-c1c(Br)cnc2cc(S(=O)(=O)Nc3nccs3)ccc12 [Example 325, 3-BROMO-4-(2-METHOXYPHENYL)-N-(THIAZOL-2-YL)QUINOLINE-7-SULFONAMIDE]
2 | 2340 | COc1cc(C(F)(F)F)ccc1-c1ccnc2cc(S(=O)(=O)Nc3nccs3)c(OC)cc12 [Example 327, 6-METHOXY-4-(2-METHOXY-4-(TRIFLUOROMETHYL)PHENYL)-N-(THIAZOL-2-YL)QUINOLINE-7-SULFONAMIDE]
3 | 6870 | COc1cc(C(F)(F)F)ccc1-c1ccnc2c(C)c(S(=O)(=O)Nc3nccs3)ccc12 [Example 328, 4-(2-METHOXY-4-(TRIFLUOROMETHYL)PHENYL)-8-METHYL-N-(THIAZOL-2-YL)QUINOLINE-7-SULFONAMIDE]
4 | 23 | COc1cc(-c2cccc(F)c2)c(Cl)cc1-c1nccc2cc(S(=O)(=O)Nc3ncns3)ccc12 [Example 331, 1-(2-CHLORO-3′-FLUORO-5-METHOXY-[1,1′-BIPHENYL]-4-YL)-N-(1,2,4-THIADIAZOL-5-YL)ISOQUINOLINE-6-SULFONAMIDE]
5 | 109 | COc1cc(-c2cccc(F)c2)c(Cl)cc1-c1nccc2cc(S(=O)(=O)Nc3cnsn3)ccc12 [Example 334, 1-(2-CHLORO-3′-FLUORO-5-METHOXY-[1,1′-BIPHENYL]-4-YL)-N-(1,2,5-THIADIAZOL-3-YL)ISOQUINOLINE-6-SULFONAMIDE]
6 | 1870 | COc1cc(-c2ccc(F)nc2)ccc1-c1nccc2cc(S(=O)(=O)Nc3ccncn3)ccc12 [Example 352, 1-(4-(6-FLUOROPYRIDIN-3-YL)-2-METHOXYPHENYL)-N-(PYRIMIDIN-4-YL)ISOQUINOLINE-6-SULFONAMIDE]
7 | 5170 | COc1ccc(C2=CCOCC2)cc1-c1nccc2cc(S(=O)(=O)Nc3ccncn3)ccc12 [Example 353, 1-(5-(3,6-DIHYDRO-2H-PYRAN-4-YL)-2-METHOXYPHENYL)-N-(PYRIMIDIN-4-YL)ISOQUINOLINE-6-SULFONAMIDE]
8 | 1850 | Cc1cc(Cl)ccc1-c1nccc2cc(S(=O)(=O)Nc3ccncn3)ccc12 [Example 357]
9 | 2380 | Cc1cc(C#N)ccc1-c1nccc2cc(S(=O)(=O)Nc3ncns3)ccc12 [Example 359]
10 | 1070 | COc1cc(OCC(F)(F)F)ccc1-c1nccc2cc(S(=O)(=O)Nc3ccncn3)ccc12 [Example 362, 1-(2-METHOXY-4-(2,2,2-TRIFLUOROETHOXY)PHENYL)-N-(PYRIMIDIN-4-YL)ISOQUINOLINE-6-SULFONAMIDE]
11 | 1420 | COc1cc(-c2cccnc2)c(F)cc1-c1nccc2cc(S(=O)(=O)Nc3nncs3)ccc12 [Example 367, 1-(5-FLUORO-2-METHOXY-4-(PYRIDIN-3-YL)PHENYL)-N-(1,3,4-THIADIAZOL-2-YL)ISOQUINOLINE-6-SULFONAMIDE]

Further lines, the compound ahead of its results:

Row | SMILES | IC50 [nM]
12 | O=S(=O)(Nc1ncns1)c1ccc2c(N3CCC[C@H]3c3cccnc3)cccc2c1 (single isomer, unassigned) [Example 86] | 62.7
13 | O=S(=O)(Nc1ncns1)c1ccc2c(N3CCC[C@@H]3c3ccncc3)cccc2c1 (single isomer, unassigned) [Example 90] | 39.3
14 | O=S(=O)(Nc1nccs1)c1ccc2c(-c3ccc(F)cc3C3=CCOC3)nccc2c1 [Example 127, 1-(2-(2,5-DIHYDROFURAN-3-YL)-4-FLUOROPHENYL)-N-(THIAZOL-2-YL)ISOQUINOLINE-6-SULFONAMIDE TRIFLUOROACETATE] | 2220
15 | Cn1cc(-c2cc(F)ccc2-c2nccc3cc(S(=O)(=O)Nc4nccs4)ccc23)cn1 [Example 129, 1-(4-FLUORO-2-(1-METHYL-1H-PYRAZOL-4-YL)PHENYL)-N-(THIAZOL-2-YL)ISOQUINOLINE-6-SULFONAMIDE TRIFLUOROACETATE] | 8000
16 | Cc1ccccc1-c1nccc2cc(S(=O)(=O)Nc3nccs3)ccc12 [Example 178, N-(THIAZOL-2-YL)-1-(O-TOLYL)ISOQUINOLINE-6-SULFONAMIDE] | 1850
17 | O=S(=O)(Nc1nccs1)c1ccc2c(-c3ccccc3Cl)nccc2c1 [Example 179, 1-(2-CHLOROPHENYL)-N-(THIAZOL-2-YL)ISOQUINOLINE-6-SULFONAMIDE] | 1300
18 | O=S(=O)(Nc1nccs1)c1ccc2c(-c3ccc(F)cc3Oc3ccccn3)nccc2c1 [Example 191, 1-(4-FLUORO-2-(PYRIDIN-2-YLOXY)PHENYL)-N-(THIAZOL-2-YL)ISOQUINOLINE-6-SULFONAMIDE] | 13900
19 | COc1cc(F)ccc1-c1ncc(O)c2cc(S(=O)(=O)Nc3nccs3)ccc12 [Example 233, 1-(4-FLUORO-2-METHOXYPHENYL)-4-HYDROXY-N-(THIAZOL-2-YL)ISOQUINOLINE-6-SULFONAMIDE 2,2,2-TRIFLUOROACETATE] | 510
20 | COc1ccccc1-c1ncc(O)c2cc(S(=O)(=O)Nc3nccs3)ccc12 [Example 234, 4-HYDROXY-1-(2-METHOXYPHENYL)-N-(THIAZOL-2-YL)ISOQUINOLINE-6-SULFONAMIDE 2,2,2-TRIFLUOROACETATE] | 980
21 | COc1cc(C(F)(F)F)ccc1-c1nccc2cc(S(=O)(=O)N=C3NC(=O)CS3)ccc12 [Example 248, (E/Z)-1-(2-METHOXY-4-(TRIFLUOROMETHYL)PHENYL)-N-(4-OXOTHIAZOLIDIN-2-YLIDENE)ISOQUINOLINE-6-SULFONAMIDE] | 910
22 | COc1cc(C(F)(F)F)ccc1-c1cnnc2cc(S(=O)(=O)Nc3ccncn3)ccc12 [Example 260, 4-(2-METHOXY-4-(TRIFLUOROMETHYL)PHENYL)-N-(PYRIMIDIN-4-YL)CINNOLINE-7-SULFONAMIDE] | 1270
23 | COc1cc(C(F)(F)F)ccc1-c1ccnc2cc(S(=O)(=O)Nc3ccncn3)ccc12 [Example 279, 4-(2-METHOXY-4-(TRIFLUOROMETHYL)PHENYL)-N-(PYRIMIDIN-4-YL)QUINOLINE-7-SULFONAMIDE] | 580
24 | COc1cc(C#N)ccc1-c1ccnc2cc(S(=O)(=O)Nc3ccncn3)ccc12 [Example 280, 4-(4-CYANO-2-METHOXYPHENYL)-N-(PYRIMIDIN-4-YL)QUINOLINE-7-SULFONAMIDE] | 4450
25 | COc1ccccc1-c1ccnc2cc(S(=O)(=O)Nc3ccncn3)ccc12 [Example 281, 4-(2-METHOXYPHENYL)-N-(PYRIMIDIN-4-YL)QUINOLINE-7-SULFONAMIDE] | 1930
26 | COc1cc(C(F)(F)F)ccc1-c1ccnc2cc(S(=O)(=O)Nc3nccs3)cc(C)c12 [Example 282, 4-(2-METHOXY-4-(TRIFLUOROMETHYL)PHENYL)-5-METHYL-N-(THIAZOL-2-YL)QUINOLINE-7-SULFONAMIDE] | 3290
27 | COc1cc(C#N)ccc1-c1cncc2cc(S(=O)(=O)Nc3ccncn3)ccc12 [Example 286, 4-(4-CYANO-2-METHOXYPHENYL)-N-(PYRIMIDIN-4-YL)ISOQUINOLINE-7-SULFONAMIDE HYDROCHLORIDE] | 4220
28 | COc1ccccc1-c1cncc2cc(S(=O)(=O)Nc3ccncn3)ccc12 [Example 287, 4-(2-METHOXYPHENYL)-N-(PYRIMIDIN-4-YL)ISOQUINOLINE-7-SULFONAMIDE HYDROCHLORIDE] | 4150
29 | COc1cc(F)ccc1-c1cncc2cc(S(=O)(=O)Nc3nccs3)ccc12 [Example 290, 4-(4-FLUORO-2-METHOXYPHENYL)-N-(THIAZOL-2-YL)ISOQUINOLINE-7-SULFONAMIDE] | 600
30 | COc1cc(C(F)(F)F)ccc1-c1ccnc2cc(S(=O)(=O)Nc3nccs3)ncc12 [Example 294, 4-(2-METHOXY-4-(TRIFLUOROMETHYL)PHENYL)-N-(THIAZOL-2-YL)-1,6-NAPHTHYRIDINE-7-SULFONAMIDE] | 2500
31 | Cc1cc(C#N)ccc1-c1ccnc2cc(S(=O)(=O)Nc3ncns3)ccc12 [Example 323] | 2300
